Test results published in US7728040B1, “Polyamine conjugates as selective NMDA inhibitors and anti-cancer drugs” (University of Central Florids Research Foundation, Inc., priority 2002, dated 2010).
pIC50, pKi: −log10 of the molar value. Structures can show the parent of a compound that is named as a salt. Where two headings read alike, the source gives them in different places.

Key:
NR1/NR2A NMDA receptor = NR1/NR2A NMDA receptor (Homo sapiens, UniProt Q05586+Q12879); assay: Inhibition of NMDA receptor NR1/NR2A function; assay type: cell-based
Chain of NR1/NR2A NMDA receptor (Q12879 23-1464, other chains not shown): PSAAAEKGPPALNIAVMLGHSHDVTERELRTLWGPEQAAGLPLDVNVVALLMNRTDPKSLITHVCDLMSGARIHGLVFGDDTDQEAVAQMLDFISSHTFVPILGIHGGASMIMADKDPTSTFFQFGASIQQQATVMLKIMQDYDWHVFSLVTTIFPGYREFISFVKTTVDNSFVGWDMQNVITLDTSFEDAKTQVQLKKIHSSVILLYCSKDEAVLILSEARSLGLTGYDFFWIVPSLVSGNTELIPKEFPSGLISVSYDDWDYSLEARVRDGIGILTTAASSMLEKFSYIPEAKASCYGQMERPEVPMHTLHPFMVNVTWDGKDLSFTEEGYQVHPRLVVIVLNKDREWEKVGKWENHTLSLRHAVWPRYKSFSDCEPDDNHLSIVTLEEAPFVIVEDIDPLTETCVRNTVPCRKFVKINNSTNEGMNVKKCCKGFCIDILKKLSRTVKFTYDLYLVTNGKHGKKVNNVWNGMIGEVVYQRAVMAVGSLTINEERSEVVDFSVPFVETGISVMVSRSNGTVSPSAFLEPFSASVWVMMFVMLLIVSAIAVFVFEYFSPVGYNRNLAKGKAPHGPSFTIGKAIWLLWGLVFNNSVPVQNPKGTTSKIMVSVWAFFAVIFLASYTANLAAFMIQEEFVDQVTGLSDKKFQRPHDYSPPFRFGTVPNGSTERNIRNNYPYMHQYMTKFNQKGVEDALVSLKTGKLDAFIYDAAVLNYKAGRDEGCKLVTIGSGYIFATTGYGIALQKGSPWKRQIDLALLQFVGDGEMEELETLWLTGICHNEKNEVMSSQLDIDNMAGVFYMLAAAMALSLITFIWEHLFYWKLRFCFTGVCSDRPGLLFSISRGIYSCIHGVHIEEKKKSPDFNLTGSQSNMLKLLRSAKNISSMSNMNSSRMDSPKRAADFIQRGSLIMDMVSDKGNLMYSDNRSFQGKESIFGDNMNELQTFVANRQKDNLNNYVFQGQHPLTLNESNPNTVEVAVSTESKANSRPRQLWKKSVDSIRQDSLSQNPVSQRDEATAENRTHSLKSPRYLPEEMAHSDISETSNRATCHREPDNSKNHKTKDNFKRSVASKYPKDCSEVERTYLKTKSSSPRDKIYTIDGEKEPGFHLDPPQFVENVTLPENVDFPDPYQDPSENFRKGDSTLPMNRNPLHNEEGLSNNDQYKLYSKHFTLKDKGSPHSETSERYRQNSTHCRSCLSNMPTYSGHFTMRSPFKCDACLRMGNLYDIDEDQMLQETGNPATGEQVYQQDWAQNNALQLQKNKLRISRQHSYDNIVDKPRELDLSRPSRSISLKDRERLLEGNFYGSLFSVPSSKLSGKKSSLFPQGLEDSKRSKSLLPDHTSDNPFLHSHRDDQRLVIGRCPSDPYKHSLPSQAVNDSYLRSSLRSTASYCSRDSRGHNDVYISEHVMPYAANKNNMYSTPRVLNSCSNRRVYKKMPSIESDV

L1210 cells + DFMO = assay: Cytotoxicity in L1210 cells pretreated with DFMO; assay type: cell-based, mouse; settings: for pIC50: Mus musculus; for L1210/(L1210 + DFMO) IC50 ratio: fold more toxic in the presence of DFMO
CHO cells = assay: Cytotoxicity in CHO cells (active polyamine transporter); assay type: cell-based, Chinese hamster; settings: for pIC50: Cricetulus griseus, CHO, read-out: CHO IC50; for CHO-MG/CHO IC50 ratio: selectivity for cells with active polyamine transporter
L1210 cells = assay: Cytotoxicity in L1210 cells; assay type: cell-based; settings: Mus musculus
polyamine transporter = assay: Ki, affinity for the polyamine transporter in L1210 cells; assay type: binding, mouse
Protocol: Biological Evaluation. Three cell lines were chosen for bioassay. L1210 (mouse leukemia) cells were selected for comparison with the published IC50 and Ki values determined for a variety of polyamine substrates. In this regard both Ki and IC50 values were measured in this line for comparison purposes. Chinese hamster ovary (CHO) cells were chosen along with a mutant cell line (CHO-MG) in order to comment on polyamine transporter affinity and cell selectivity. The CHO-MG cell line is polyamine-transport deficient and was isolated after chronic selection for growth resistance to methylglyoxalbis (guanylhydrazone). For the purposes of this study, the CHO-MG cell line represents cells with limited polyamine transport activity. In contrast, the parent CHO cell line illustrates cell types with active polyamine transport. Comparison of efficacy in these two lines provided an important screen to detect conjugate delivery via the polyamine transporter, PAT. For example, a conjugate with high utilization of the transporter would be very toxic to CHO cells, but less so to CHO-MG cells. Therefore, IC50 determination in these two CHO lines provided a relative ranking of delivery via the PAT.

CHO-MG cells = assay: Cytotoxicity in CHO-MG cells (polyamine-transport deficient); assay type: cell-based, Chinese hamster; settings: Cricetulus griseus, read-out: CHO-MG IC50
[1] = L1210 cells pretreated with DFMO, read-out: L1210 + DFMO IC50
[2] = L1210 cells, no DFMO, read-out: L1210 IC50
[3] = polyamine-transport deficient line

Row | pIC50 (NR1/NR2A NMDA receptor) | SMILES | IC50 for NR1/NR2A (NR1/NR2A NMDA receptor) | NMDA receptor (NR1A/NR2A) function at the highest dose (NR1/NR2A NMDA receptor) | pIC50 (L1210 cells + DFMO; [1]) | L1210/(L1210 + DFMO) IC50 ratio (L1210 cells + DFMO) | pIC50 (CHO cells; active polyamine transporter) | CHO-MG/CHO IC50 ratio (CHO cells) | pIC50 (L1210 cells; [2]) | pKi (polyamine transporter) | pIC50 (CHO-MG cells; [3]) | CHO-MG/CHO IC50 ratio (CHO cells; listed as 27c, Trihydrochloride) | CHO-MG/CHO IC50 ratio (CHO cells; trihydrochloride) | pIC50 (L1210 cells + DFMO; L1210, read-out: L1210 + DFMO IC50) | pIC50 (CHO cells) | pIC50 (L1210 cells; L1210, read-out: L1210 IC50) | pIC50 (CHO-MG cells)
1 | – | c1ccc2cc3ccccc3cc2c1 [Anthracene] | no effect | greater than 85% | – | – | – | – | – | – | – | – | – | – | – | – | –
2 | – | Cl.Cl.Cl.NCCCN(CCCN)Cc1c2ccccc2cc2ccccc12 [Compound 8b, N-(3-Amino-propyl)-N-anthracen-9-ylmethyl-propane-1,3-diamine, trihydrochloride] | – | – | 5.85 | 1.3 | 5.72 | 1.8 | 5.74 | 4.48 | 5.47 | – | – | – | – | – | –
3 | – | Cl.Cl.Cl.NCCCCNCCCNCc1c2ccccc2cc2ccccc12 [Compound 8c, N^1-{3-[(Anthracen-9-ylmethyl)-amino]-propyl}-butane-1,4-diamine, trihydrochloride] | – | – | 6.52 | 2.3 | 5.60 | 3.5 | 6.15 | 5.60 | 5.06 | – | – | – | – | – | –
4 | – | Cl.Cl.Cl.NCCCCN(CCCN)Cc1c2ccccc2cc2ccccc12 [Compound 8d, N-(3-Amino-propyl)-N-anthracen-9-ylmethyl-butane-1,4-diamine, trihydrochloride] | – | – | 6.70 | 2 | 6.40 | 24 | 6.40 | 5.21 | 5.02 | – | – | – | – | – | –
5 | – | Cl.Cl.Cl.NCCCCCN(CCCN)Cc1c2ccccc2cc2ccccc12 [Compound 8f, N-(3-Amino-propyl)-N-anthracen-9-ylmethyl-pentane-1,5-diamine, trihydrochloride] | – | – | 6.15 | 1.9 | 5.39 | 2.5 | 5.89 | 5.30 | 5.00 | – | – | – | – | – | –
6 | – | Cl.Cl.Cl.NCCCCCN(CCCCN)Cc1c2ccccc2cc2ccccc12 [Compound 8g, N-(4-Amino-butyl)-N-anthracen-9-ylmethyl-pentane-1,5-diamine, trihydrochloride] | – | – | 6.52 | 1.3 | 5.82 | 38 | 6.40 | 5.77 | 4.24 | – | – | – | – | – | –
7 | – | NCCCCNCCCNCCCNCc1c2ccccc2cc2ccccc12 [Compound 13a, N^1-{3-[3-(Anthracen-9-ylmethyl)-amino]-propylamino}-butane-1,4-diamine Tetrahydrochloride] | – | – | 4.66 | 1 | 4.36 | 0.9 | 4.66 | 6.97 | 4.38 | – | – | – | – | – | –
8 | – | Cl.Cl.Cl.Cl.NCCCCCN(CCCCN)CCCNCc1c2ccccc2cc2ccccc12 [Compound 13d, N-(4-Amino-butyl)-N-{3-[(anthracen-9-ylmethyl)-amino]-propyl}-pentane-1,5-diamine Tetrahydrochloride] | – | – | 5.14 | 1.5 | 4.46 | 1.2 | 4.97 | 7.05 | 4.38 | – | – | – | – | – | –
9 | – | Cl.Cl.Cl.Cl.NCCCCN(CCCCNCCCN)Cc1c2ccccc2cc2ccccc12 [Compound 13e, N-[4-(3-Amino-propylamino)-butyl]-N-anthracen-9-ylmethyl-butane-1,4-diamine Tetrahydrochloride] | – | – | 6.22 | 7.2 | 5.40 | 0.7 | 5.37 | 7.13 | 5.55 | – | – | – | – | – | –
10 | – | Cl.Cl.Cl.Cl.NCCCCNCCCCN(CCCCN)Cc1c2ccccc2cc2ccccc12 [Compound 13f, N-[4-(4-Amino-butylamino)-butyl]-N-anthracen-9-ylmethyl-butane-1,4-diamine Tetrahydrochloride] | – | – | 5.80 | 4.7 | 4.97 | – | 5.12 | 7.29 | 4.48 | – | – | – | – | – | –
11 | – | Cl.Cl.Cl.Cl.NCCCCCN(CCCCNCCCN)Cc1c2ccccc2cc2ccccc12 [Compound 13g, N-[4-(3-Amino-propylamino)-butyl]-N-anthracen-9-ylmethyl-pentane-1,5-diamine Tetrahydrochloride] | – | – | 5.68 | 3 | 4.74 | 1.9 | 5.19 | 7.00 | 4.47 | – | – | – | – | – | –
12 | – | Cl.Cl.Cl.Cl.NCCCCCN(CCCCNCCCCN)Cc1c2ccccc2cc2ccccc12 [Compound 13h, N-[4-(4-Amino-butylamino)-butyl]-N-anthracen-9-ylmethyl-pentane-1,5-diamine Tetrahydrochloride] | – | – | 5.42 | 1.9 | 5.00 | – | 5.14 | 7.19 | 4.51 | – | – | – | – | – | –
13 | – | Cl.Cl.Cl.Cl.NCCCCCN(CCCCCNCCCCN)Cc1c2ccccc2cc2ccccc12 [Compound 13i, N-[5-(4-Amino-butylamino)-pentyl]-N-anthracen-9-ylmethyl-pentane-1,5-diamine Tetrahydrochloride] | – | – | 5.37 | 1.7 | 5.40 | 1.4 | 5.15 | 7.19 | 5.24 | – | – | – | – | – | –
14 | – | Cl.Cl.Cl.NCCCCNCCCCNCc1ccccc1 [Compound 27a, N-(4-Amino-butyl)-N′-benzene-1-ylmethyl-butane-1,4-diamine Trihydrochloride] | – | – | 3.38 | 0.1 | < 3.00 | – | 4.44 | 5.35 | < 3.00 | – | – | – | – | – | –
15 | – | Cl.Cl.Cl.NCCCCNCCCCNCc1cccc2ccccc12 [Compound 27b, N-(4-Amino-butyl)-N′-naphthalen-1-ylmethyl-butane-1,4-diamine Trihydrochloride] | – | – | 6.37 | 1.1 | 6.22 | – | 6.30 | 5.42 | < 4.00 | >164 | > 164 | – | – | – | –
16 | – | Cl.Cl.Cl.NCCCCNCCCCNCc1ccc2ccc3cccc4ccc1c2c34 [Compound 27d, N-(4-Amino-butyl)-N′-pyren-1-ylmethyl-butane-1,4-diamine Trihydrochloride] | – | – | – | 1.1 | – | 34 | – | 5.54 | – | – | – | 6.44 | 6.34 | 6.40 | 4.81
17 | – | Cl.Cl.Cl.NCC(O)CNCCCCNCc1c2ccccc2cc2ccccc12 (stereo not shown) [Compound 30, 1-Amino-3-{4-[(anthracen-9-ylmethyl)-amino]-butylamino}-propan-2-ol Trihydrochloride] | – | – | 5.64 | 0.7 | 5.04 | 1 | 5.82 | 4.90 | 5.02 | – | – | – | – | – | –
18 | – | Cl.Cl.Cl.NC1CCC(NCCCCNCc2c3ccccc3cc3ccccc23)CC1 (stereo not shown) [Compound 31, N-{4-[(Anthracen-9-ylmethyl)-amino]-butyl}-cyclohexane-1,4-diamine Trihydrochloride] | – | – | 6.15 | 1.4 | 5.60 | 7 | 6.00 | 5.42 | 4.76 | – | – | – | – | – | –
19 | – | Cl.Cl.NCCCCCCCCNCc1c2ccccc2cc2ccccc12 [Compound 32, N^1-Anthracen-9-ylmethyl-octane-1,8-diamine Dihydrochloride] | – | – | 5.34 | 0.7 | 5.31 | 1 | 5.52 | 4.88 | 5.31 | – | – | – | – | – | –
20 | – | Cl.Cl.NCCOCCOCCNCc1c2ccccc2cc2ccccc12 [Compound 33, 2-(2-{2-[(Anthracen-9-ylmethyl)-amino]-ethoxy}-ethoxy)-ethylamine Dihydrochloride] | – | – | 4.77 | 0.7 | 4.90 | 1.3 | 4.95 | 4.05 | 4.80 | – | – | – | – | – | –
21 | – | Cl.Cl.NCCCCNCc1c2ccccc2cc2ccccc12 [Compound 34, N^1-Anthracen-9-ylmethyl-butane-1,4-diamine Dihydrochloride] | – | – | 5.01 | 0.7 | 5.11 | 1 | 5.20 | 4.49 | 5.12 | – | – | – | – | – | –
22 | – | CCCCNCc1c2ccccc2cc2ccccc12 [Compound 35, N^1-Anthracen-9-ylmethyl-butylamine Monohydrochloride] | – | – | 4.66 | 0.7 | 4.98 | 1.1 | 4.84 | 4.21 | 4.95 | – | – | – | – | – | –
23 | 3.28 | NCCCNCCCCNCCCN [Spermine] | – | – | – | – | – | – | – | – | – | – | – | – | – | – | –
